Values of other authors in patent publication US20170020817A1, “SOLID NANOPARTICLE FORMULATION OF MICROTUBLE INHIBITORS WITH REDUCED OSTWALD REPENING FOR ORAL ADMINISTRATION” (Luminus Biosciences, Inc., priority 2013, published 2017).

Assays:
microtubules = settings: most test systems

Row | SMILES | effectiveness relative to epothilone A (microtubules) | solubility in water
1 | C/C(=C\c1csc(C)n1)[C@@H]1C[C@@H]2O[C@]2(C)CCC[C@H](C)[C@H](O)[C@@H](C)C(=O)C(C)(C)[C@@H](O)CC(=O)O1 [epothilone B] | approximately ten-time more effective | –
2 | CO[C@H]1C(=O)[C@]2(C)[C@@H](OC)C[C@H]3OC[C@@]3(OC(C)=O)[C@H]2[C@H](OC(=O)c2ccccc2)[C@]2(O)C[C@H](OC(=O)[C@H](O)[C@@H](NC(=O)OC(C)(C)C)c3ccccc3)C(C)=C1C2(C)C [cabazitaxel] | – | about 8 mg/L
3 | CC(=O)O[C@H]1C(=O)[C@@]2(C)[C@H]([C@H](OC(=O)c3ccccc3)[C@]3(O)C[C@H](OC(=O)[C@H](O)[C@@H](NC(=O)c4ccccc4)c4ccccc4)C(C)=C1C3(C)C)[C@]1(OC(C)=O)CO[C@@H]1C[C@@H]2O [paclitaxel] | – | about 0.4 mg/L
4 | CC(=O)O[C@@]12CO[C@@H]1C[C@H](O)[C@@]1(C)C(=O)[C@H](O)C3=C(C)[C@@H](OC(=O)[C@H](O)[C@@H](NC(=O)OC(C)(C)C)c4ccccc4)C[C@@](O)([C@@H](OC(=O)c4ccccc4)[C@H]21)C3(C)C [docetaxel] | – | about 14 mg/L
5 | C/C(=C\c1csc(C)n1)[C@@H]1C[C@@H]2O[C@]2(C)CCC[C@H](C)[C@H](O)[C@@H](C)C(=O)C(C)(C)[C@@H](O)CC(=O)N1 [Ixabepilone] | – | about 3.5 mg/L
